Patent US20080187492A1, “Drosophila Models For Diseases Affecting Learning and Memory” (priority 2004, published 2008)

Key:
[1] = test system: flies heterozygous for the Drosophila presenilin gene; assay: Short term memory in presenilin mutant Drosophila model of Alzheimer's disease; assay type: in vivo; conditions: 30 days of age; data not shown
Excerpt: We have also discovered that there is a deficit in long term memory in these flies as young adults, and there is also an age dependent deficit in these flies in short term memory at 30 days of age (data not shown). This age dependent deficit in short term memory is rescued by treatment with LY341495. Additionally, this age dependent deficit is rescued by lowering IP3R expression by making these presenilin mutant lines heterozygous for an IP3R deletion (data not shown).

[2] = test system: FS (dFMR1-3+frame shifted rescue fragment) flies; assay: Discrimination between virgin and previously mated females, FS flies; assay type: in vivo, Drosophila melanogaster; conditions: 20-day-old; MPEP 200 μg/ml in development and adulthood (M-M)
Protocol: Short-term memory. The model was further extended to encompass short-term memory at 60 minutes after training. After the one hour training session with a previously mated female, the female is removed and the male is placed in a holding chamber for 60 minutes, then subsequently placed in a testing chamber with a virgin female target to assess short-term memory (FIG. 4C). […] CT-CT FS flies court just as vigorously at 60 minutes after training as naive CT-CT FS flies. […] The FS groups that were treated with MPEP in development alone, adulthood alone or in both development and adulthood display experience dependent reduction of courtship activity at 60 minutes after training when compared to group matched naives M-M FS, p<0.0001, CT-M FS, p<0.0001 and M-CT FS, p<0.0001. […] Additionally, flies were tested for ability to discriminate between virgin and previously mated females (FIG. 4D).
Flies were also tested for ability to discriminate between virgin and previously mated females in FIG. 9C.

[3] = test system: Rescue (dFMR1-3+wild type rescue fragment) flies; assay: Conditioned courtship: immediate recall (0 minute memory), Rescue flies; assay type: in vivo, Drosophila melanogaster
Protocol: To assess immediate recall (0 minute memory), after the one hour training session with a previously mated female, the male was placed with a virgin target female for a ten-minute interval. This CI was then compared to the courtship level of naive males that had been placed in the training chamber for one hour with no female, before introducing them to a virgin target female for a ten-minute interval. In FIG. 1B the w1118 and Rescue lines show depression of courtship activity after training compared to naive trained males (p<0.005). However, dFMR1-3 and FS mutant lines court just as vigorously after training with a previously mated female as naive trained males, therefore these flies display no experience dependent behavioral plasticity at the time point of immediate recall. This is in spite of the fact that they court to similar levels as w1118 and Rescue lines during the training period. This implicates a deficit in synaptic plasticity for the two mutant lines at immediate recall (0 minute memory). This robust deficit in behavioral plasticity is a critical extension of the previous models of Fragile X syndrome in model organisms, since this has been completely missing in Drosophila models and is subtle in murine models, and particularly since this may be one of the most devastating aspects of the human disease.
Immediate recall. […]

[4] = test system: flies heterozygous for the Drosophila presenilin gene; assay: Learning during training in Drosophila model of Alzheimer's disease with reduced presenilin; assay type: in vivo; design: age dependent impairment in learning during training: dose or concentration left out as unconfirmed
Excerpt: FIG. 10 is a graph showing the effect of MPEP on learning during training in a Drosophila model of Alzheimer's disease expressing reduced amounts of presenilin. All flies have reduced presenilin level. Black bars are 5 day old flies raised on kept on control food (N=18) which display learning during training (p<0.05). […] This impairment is prevented by treatment with MPEP.
Using methods similar to those described in Examples 1 and 2, we evaluated the effect of MPEP on various aspects of learning and memory in a Drosophila model of Alzheimer's disease with reduced expression of presenilin.
Flies in all three groups are heterozygous for the Drosophila presenilin gene. Each group has one wild type presenilin gene and one null presenilin gene, resulting from a deletion at the presenilin locus or a mutation at the presenilin locus. Learning during training was assayed in flies kept on control food until tested at five days of age, kept on control food until tested at 30 days of age or kept on control food for the first five days after eclosion then switched to food containing 200 μg/ml of MPEP until being moved back to control food the day before being tested at 30 days of age. […] This age-dependent deficit in learning during training is apparent in ten mutant presenilin Drosophila lines evaluated. In flies treated with MPEP, learning during training was restored at 30 days of age (p<0.05).

Row | Compound | age dependent deficit in short term memory [1] | time courting virgin female compared to previously mated female (discrimination) [2] | immediate recall ([3]; 20-day-old, MPEP in development or adulthood or both) | immediate recall ([3]; 5 day old, MPEP 200 μg/ml in development or adulthood or both) | age dependent impairment in learning during training ([4]; 30 day old, food supplemented MPEP from day 5) | learning during training ([4]; 30 days of age, food containing 200 μg/ml of MPEP from day 5, p<0.05)
1 | N[C@](CC1c2ccccc2Oc2ccccc21)(C(=O)O)[C@H]1C[C@@H]1C(=O)O [LY341495, (2S)-2-amino-2-[(1S,2S)-2-carboxycycloprop-1-yl]-3-(xanth-9-yl) propionic acid] | rescued |  |  |  |  | 
2 | Cc1cccc(C#Cc2ccccc2)n1 [MPEP, 2-methyl-6-(phenylethynyl)pyridine] |  | spent significantly more time courting virgin female targets | does not adversely affect immediate recall | does not adversely affect immediate recall | prevented | restored
